Drawing on ChEMBL document CHEMBL4251622, “Design, synthesis, and biological evaluation of polo-like kinase 1/eukaryotic elongation factor 2 kinase (PLK1/EEF2K) dual inhibitors for regulating breast cancer cells apoptosis and autophagy” (Eur J Med Chem, 2018), this text covers Activity for one molecule.

Calls of active or inactive are those of the source. No cut-off for these calls is given here.

The test system of one test is BT-483. Kind of test: Downregulation of Bcl2 protein expression in human BT-483 cells at 5 to 10 uM by Western blot analysis. Format: functional, cell-based. (In general: A western blot detects proteins with antibodies after separation by electrophoresis.)
In the next test the test system is BT-474. The test can be described thus: Cytotoxicity against human BT474 cells after 24 hrs by MTT assay. The format is functional, cell-based. A general note: Tetrazolium dyes change colour on reduction, which living cells bring about.
The target in test [1] is Phosphatidylinositol 4,5-bisphosphate 3-kinase catalytic subunit alpha isoform (Homo sapiens) (UniProt P42336). Kind of test: Inhibition of wild-type human partial length PIK3CA (R108 to N1068 residues) expressed in mammalian expression system assessed as residual activity at 1 uM by Kinomescan method relative to control.
In test [2] the target is Insulin receptor (Homo sapiens) (UniProt P06213). The test can be described thus: Inhibition of wild-type human partial length INSR (P997 to E1318 residues) expressed in mammalian expression system assessed as residual activity at 1 uM by Kinomescan method relative to control.
The target in test [3] is Aurora kinase B (Homo sapiens) (UniProt Q96GD4). Kind of test: Inhibition of wild-type human partial length AURKB (D25 to A303 residues) expressed in mammalian expression system assessed as residual activity at 1 uM by Kinomescan method relative to control.
The target in test [4] is Serine/threonine-protein kinase Chk1 (Homo sapiens) (UniProt O14757). Kind of test: Inhibition of wild-type human partial length CHEK1 (M1 to G289 residues) expressed in bacterial expression system assessed as residual activity at 1 uM by Kinomescan method relative to control.
Test [5] has as its target Aurora kinase A (Homo sapiens) (UniProt O14965). Kind of test: Inhibition of wild-type human partial length AURKA (E122 to K401 residues) expressed in mammalian expression system assessed as residual activity at 1 uM by Kinomescan method relative to control.
In test [6] the target is Serine/threonine-protein kinase Nek1 (Homo sapiens) (UniProt Q96PY6). Kind of test: Inhibition of wild-type human partial length NEK1 (M1 to K278 residues) expressed in bacterial expression system assessed as residual activity at 1 uM by Kinomescan method relative to control.
Test [7] deals with Mitogen-activated protein kinase 6 (Homo sapiens) (UniProt Q16659). Kind of test: Inhibition of wild-type human partial length ERK3 (M1 to P413 residues) expressed in bacterial expression system assessed as residual activity at 1 uM by Kinomescan method relative to control.
The target in test [8] is Serine/threonine-protein kinase TNNI3K (Homo sapiens) (UniProt Q59H18). Kind of test: Inhibition of wild-type human full length TNNI3K (M1 to S835 residues) expressed in bacterial expression system assessed as residual activity at 1 uM by Kinomescan method relative to control.
Sequence of Serine/threonine-protein kinase TNNI3K (Homo sapiens) (Q59H18 whole entry, the tested form may be a part): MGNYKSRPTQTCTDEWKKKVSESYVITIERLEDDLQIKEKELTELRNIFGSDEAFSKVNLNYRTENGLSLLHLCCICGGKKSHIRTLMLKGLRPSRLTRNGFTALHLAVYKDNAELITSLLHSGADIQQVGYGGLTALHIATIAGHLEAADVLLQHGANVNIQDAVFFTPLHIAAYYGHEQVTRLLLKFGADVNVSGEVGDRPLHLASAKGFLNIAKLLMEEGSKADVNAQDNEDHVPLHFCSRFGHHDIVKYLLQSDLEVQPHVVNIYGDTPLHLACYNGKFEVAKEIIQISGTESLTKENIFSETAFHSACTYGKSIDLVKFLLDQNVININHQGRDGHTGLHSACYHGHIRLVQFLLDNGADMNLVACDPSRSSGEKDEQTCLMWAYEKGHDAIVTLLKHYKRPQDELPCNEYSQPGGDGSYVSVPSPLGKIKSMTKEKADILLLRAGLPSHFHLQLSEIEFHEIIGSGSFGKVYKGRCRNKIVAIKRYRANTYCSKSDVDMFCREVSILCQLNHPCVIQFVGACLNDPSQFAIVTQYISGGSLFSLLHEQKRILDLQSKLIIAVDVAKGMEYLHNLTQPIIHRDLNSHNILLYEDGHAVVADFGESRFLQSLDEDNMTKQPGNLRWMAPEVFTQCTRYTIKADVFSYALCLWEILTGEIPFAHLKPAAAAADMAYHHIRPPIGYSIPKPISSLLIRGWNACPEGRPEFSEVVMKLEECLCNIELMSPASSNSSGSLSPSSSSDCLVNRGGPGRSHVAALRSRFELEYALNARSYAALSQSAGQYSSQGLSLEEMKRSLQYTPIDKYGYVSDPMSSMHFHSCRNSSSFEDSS

Sequence of Phosphatidylinositol 4,5-bisphosphate 3-kinase catalytic subunit alpha isoform (Homo sapiens) (P42336 whole entry, the tested form may be a part, canonical isoform): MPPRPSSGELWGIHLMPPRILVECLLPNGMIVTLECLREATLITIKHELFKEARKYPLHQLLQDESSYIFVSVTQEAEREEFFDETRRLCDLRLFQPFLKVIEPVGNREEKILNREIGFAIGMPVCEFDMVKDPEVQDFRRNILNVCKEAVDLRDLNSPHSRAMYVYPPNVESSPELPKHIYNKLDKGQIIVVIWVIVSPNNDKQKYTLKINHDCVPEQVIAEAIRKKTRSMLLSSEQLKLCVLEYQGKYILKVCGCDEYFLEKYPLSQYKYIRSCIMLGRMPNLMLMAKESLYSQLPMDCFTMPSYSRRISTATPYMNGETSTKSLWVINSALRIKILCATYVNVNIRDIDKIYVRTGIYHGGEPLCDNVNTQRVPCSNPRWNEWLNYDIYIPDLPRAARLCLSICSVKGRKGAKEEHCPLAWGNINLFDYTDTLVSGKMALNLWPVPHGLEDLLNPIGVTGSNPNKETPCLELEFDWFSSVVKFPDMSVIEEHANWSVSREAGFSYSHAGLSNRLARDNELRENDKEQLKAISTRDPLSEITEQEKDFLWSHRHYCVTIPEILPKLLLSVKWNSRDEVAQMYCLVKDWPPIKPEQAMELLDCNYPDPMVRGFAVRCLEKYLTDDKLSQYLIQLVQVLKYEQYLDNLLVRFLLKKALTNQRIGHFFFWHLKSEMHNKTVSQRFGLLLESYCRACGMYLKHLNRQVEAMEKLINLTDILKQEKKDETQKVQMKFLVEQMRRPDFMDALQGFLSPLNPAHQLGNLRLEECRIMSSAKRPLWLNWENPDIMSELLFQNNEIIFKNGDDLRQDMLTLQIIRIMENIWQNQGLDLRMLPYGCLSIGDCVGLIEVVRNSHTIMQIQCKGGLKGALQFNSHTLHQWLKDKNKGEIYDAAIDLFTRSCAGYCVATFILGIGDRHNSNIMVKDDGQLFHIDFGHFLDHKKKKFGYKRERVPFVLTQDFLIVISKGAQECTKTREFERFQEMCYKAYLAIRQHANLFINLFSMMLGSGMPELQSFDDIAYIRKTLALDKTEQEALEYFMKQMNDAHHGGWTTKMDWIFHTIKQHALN
Sequence of Aurora kinase A (Homo sapiens) (O14965 whole entry, the tested form may be a part): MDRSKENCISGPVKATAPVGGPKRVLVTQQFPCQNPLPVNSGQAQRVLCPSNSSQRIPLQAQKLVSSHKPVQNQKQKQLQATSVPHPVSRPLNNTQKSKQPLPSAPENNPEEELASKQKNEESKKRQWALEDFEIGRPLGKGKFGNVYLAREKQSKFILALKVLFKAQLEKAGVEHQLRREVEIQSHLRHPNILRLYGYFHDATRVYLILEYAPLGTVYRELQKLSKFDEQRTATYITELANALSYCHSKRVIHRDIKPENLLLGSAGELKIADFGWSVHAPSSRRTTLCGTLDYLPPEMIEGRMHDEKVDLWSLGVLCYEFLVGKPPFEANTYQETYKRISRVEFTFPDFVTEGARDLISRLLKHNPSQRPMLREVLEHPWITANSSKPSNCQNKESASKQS
Sequence of Aurora kinase B (Homo sapiens) (Q96GD4 whole entry, the tested form may be a part): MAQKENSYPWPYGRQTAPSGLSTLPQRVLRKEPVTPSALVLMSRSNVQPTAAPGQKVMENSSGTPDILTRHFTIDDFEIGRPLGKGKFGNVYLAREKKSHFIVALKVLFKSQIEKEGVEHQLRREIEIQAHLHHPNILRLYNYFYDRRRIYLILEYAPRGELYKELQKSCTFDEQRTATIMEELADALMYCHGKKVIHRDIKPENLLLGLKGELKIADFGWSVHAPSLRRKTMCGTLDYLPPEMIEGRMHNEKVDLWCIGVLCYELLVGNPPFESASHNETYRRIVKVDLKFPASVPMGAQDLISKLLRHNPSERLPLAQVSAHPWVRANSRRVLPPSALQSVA
Sequence of Insulin receptor (Homo sapiens) (P06213 28-758 limits assumed): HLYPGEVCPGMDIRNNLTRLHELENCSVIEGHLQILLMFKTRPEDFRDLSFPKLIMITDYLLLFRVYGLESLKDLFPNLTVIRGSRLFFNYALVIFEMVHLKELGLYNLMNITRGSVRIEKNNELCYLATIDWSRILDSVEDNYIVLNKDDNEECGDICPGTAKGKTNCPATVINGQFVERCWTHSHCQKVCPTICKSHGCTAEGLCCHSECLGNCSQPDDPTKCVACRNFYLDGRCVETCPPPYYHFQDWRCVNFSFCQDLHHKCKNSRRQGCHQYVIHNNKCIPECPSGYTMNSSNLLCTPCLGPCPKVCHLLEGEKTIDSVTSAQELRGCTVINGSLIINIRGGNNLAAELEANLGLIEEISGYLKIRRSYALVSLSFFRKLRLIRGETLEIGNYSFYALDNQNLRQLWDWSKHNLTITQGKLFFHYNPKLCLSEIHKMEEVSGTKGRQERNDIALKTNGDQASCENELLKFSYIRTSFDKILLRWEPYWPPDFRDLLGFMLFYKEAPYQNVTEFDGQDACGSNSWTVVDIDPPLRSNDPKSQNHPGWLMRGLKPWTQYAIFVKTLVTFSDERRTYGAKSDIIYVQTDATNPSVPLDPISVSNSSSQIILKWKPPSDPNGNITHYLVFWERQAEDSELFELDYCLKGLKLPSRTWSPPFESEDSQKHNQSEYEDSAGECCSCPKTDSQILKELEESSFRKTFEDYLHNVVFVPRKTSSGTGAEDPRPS
Sequence of Insulin receptor (Homo sapiens) (P06213 763-1382 limits assumed): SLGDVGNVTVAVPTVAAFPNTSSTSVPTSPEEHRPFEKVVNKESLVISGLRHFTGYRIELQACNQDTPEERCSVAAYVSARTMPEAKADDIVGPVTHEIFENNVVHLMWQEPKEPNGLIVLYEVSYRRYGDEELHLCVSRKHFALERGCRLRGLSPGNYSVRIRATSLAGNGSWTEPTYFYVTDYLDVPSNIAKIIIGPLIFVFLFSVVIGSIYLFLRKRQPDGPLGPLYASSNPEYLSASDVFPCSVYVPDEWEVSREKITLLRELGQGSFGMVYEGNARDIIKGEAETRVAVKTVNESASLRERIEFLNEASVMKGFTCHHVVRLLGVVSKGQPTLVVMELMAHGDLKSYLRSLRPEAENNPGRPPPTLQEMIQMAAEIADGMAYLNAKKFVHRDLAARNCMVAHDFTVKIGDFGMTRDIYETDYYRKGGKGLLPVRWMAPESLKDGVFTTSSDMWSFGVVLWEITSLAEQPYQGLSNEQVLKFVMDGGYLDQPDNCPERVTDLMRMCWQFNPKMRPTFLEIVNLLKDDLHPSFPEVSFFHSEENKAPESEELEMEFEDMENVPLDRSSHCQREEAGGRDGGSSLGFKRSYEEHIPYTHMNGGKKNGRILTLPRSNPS
Sequence of Mitogen-activated protein kinase 6 (Homo sapiens) (Q16659 whole entry, the tested form may be a part): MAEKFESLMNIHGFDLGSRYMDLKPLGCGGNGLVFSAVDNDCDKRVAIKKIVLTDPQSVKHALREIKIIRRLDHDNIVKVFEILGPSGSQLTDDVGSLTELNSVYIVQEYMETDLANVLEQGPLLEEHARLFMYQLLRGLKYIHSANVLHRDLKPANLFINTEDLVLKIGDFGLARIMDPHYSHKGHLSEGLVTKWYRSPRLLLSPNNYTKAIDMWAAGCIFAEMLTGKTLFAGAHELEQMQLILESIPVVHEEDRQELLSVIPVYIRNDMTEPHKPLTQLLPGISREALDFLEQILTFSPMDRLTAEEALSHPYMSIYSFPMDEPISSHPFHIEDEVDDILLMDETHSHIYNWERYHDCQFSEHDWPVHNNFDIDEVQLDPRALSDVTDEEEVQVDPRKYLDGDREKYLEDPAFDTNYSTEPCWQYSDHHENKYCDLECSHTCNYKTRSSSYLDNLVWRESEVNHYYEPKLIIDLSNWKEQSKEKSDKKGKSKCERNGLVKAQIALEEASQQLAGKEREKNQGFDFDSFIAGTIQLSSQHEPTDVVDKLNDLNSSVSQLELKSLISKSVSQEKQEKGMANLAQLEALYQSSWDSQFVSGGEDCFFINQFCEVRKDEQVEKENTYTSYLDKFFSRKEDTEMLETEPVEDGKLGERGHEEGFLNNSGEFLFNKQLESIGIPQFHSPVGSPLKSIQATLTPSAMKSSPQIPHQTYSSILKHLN

With `CCNc1cc(-c2ccc(NC(=O)Nc3cccc(Cl)c3)cc2C(F)(F)F)ccn1`, the result in the test with BT-483 and in the test with BT-474 was Active. The Activity in test [1] was 69%; in [2], 87%; in test [3] it was 95%; in [4], 81%; in test [5], 100%; in test [6], 60%. Moreover, the Activity in [7] came out at 73%; in test [8], 70%.
